Experimental data reported in PubChem BioAssay (NCI).
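Step 1: Grow cells in 96-well plates. Step 2: Expose to compound for 48 hours at 5 concentrations. Step 3: Interpolate endpoints linearly; if unreached, use highest concentration. GI50 is the concentration that inhibits growth by half. TGI is the concentration that stops growth completely.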

Legend:
Assay in all cases: NCI tumour cell line growth inhibition, 48 h
[1] = system: UACC-62 melanoma
[2] = system: SK-MEL-2 melanoma
[3] = system: UACC-257 melanoma
[4] = system: CCRF-CEM leukemia
[5] = system: SF-295 CNS
[6] = system: NCI-H460 lung
[7] = system: HOP-62 NSCLC
[8] = system: SNB-19 CNS
[9] = system: IGROV1 ovarian
[10] = system: ACHN renal

Q: Which results are given for `Clc1coc2nc3ccccc3c(Nc3ccc4c(c3)OCO4)c12`?
A: GI50 [1]: 0.408 µM; TGI [1]: 5.32 µM; GI50 [2]: 5.99 µM; TGI [2]: > 100 µM; GI50 [3]: 9.15 µM; TGI [3]: 26.1 µM; GI50 [4]: 1.54 µM; TGI [4]: 6.96 µM; GI50 [5]: 1.21 µM; TGI [5]: 4.42 µM; GI50 [6]: 1.98 µM; TGI [6]: 14.5 µM; GI50 [7]: 0.781 µM; TGI [7]: 21.9 µM; GI50 [8]: 1.8 µM; TGI [8]: > 100 µM; GI50 [9]: 5.95 µM; TGI [9]: > 100 µM; GI50 [10]: 1.15 µM; TGI [10]: 12.1 µM

Q: Which results are given for `COC(=O)c1cc2c3ccccc3n(C(C)=O)c2cn1`?
A: TGI [1]: > 100 µM; TGI [2]: > 100 µM; TGI [3]: > 100 µM; TGI [4]: > 100 µM; TGI [5]: > 100 µM; TGI [6]: > 100 µM; TGI [7]: > 100 µM; TGI [8]: > 100 µM; TGI [9]: > 100 µM; TGI [10]: > 100 µM

Q: What does the source list for `COc1ccc2c(c1)C(C)Cc1c(Cl)ncnc1N2C` (centres undefined)?
A: GI50 [1]: 0.445 µM; TGI [1]: 19 µM; GI50 [2]: 0.405 µM; TGI [2]: 2.12 µM; GI50 [3]: 0.471 µM; TGI [3]: 23.3 µM; GI50 [4]: 2.14 µM; TGI [4]: > 55.8 µM; GI50 [5]: 0.375 µM; TGI [5]: > 48.1 µM; GI50 [6]: 0.493 µM; TGI [6]: > 100 µM; GI50 [7]: 0.475 µM; TGI [7]: 20.1 µM; GI50 [8]: 0.732 µM; TGI [8]: > 100 µM; GI50 [9]: 1.96 µM; TGI [9]: > 69.6 µM; GI50 [10]: 0.852 µM; TGI [10]: > 100 µM

Q: What does the source list for `COc1ccc(OC)c(NC(=O)C(=O)NNC(=O)c2sc(NNC(C)=O)nc2C)c1`?
A: TGI [1]: 81.5 µM; TGI [2]: > 100 µM; TGI [3]: 61.5 µM; TGI [4]: 45.2 µM; TGI [5]: > 100 µM; TGI [6]: > 100 µM; TGI [7]: > 100 µM; TGI [8]: > 100 µM; TGI [9]: > 100 µM; TGI [10]: 96.1 µM

Q: What does the source list for `O=C1NC(=Nc2ccccc2)S/C1=C\c1ccc2ncccc2c1`?
A: GI50 [1]: 13.4 µM; TGI [1]: > 25 µM; GI50 [2]: > 17.9 µM; TGI [2]: > 25 µM; GI50 [3]: > 25 µM; TGI [3]: > 25 µM; GI50 [4]: > 25 µM; TGI [4]: > 25 µM; TGI [5]: > 7.02 µM; GI50 [6]: > 6.82 µM; TGI [6]: > 25 µM; GI50 [7]: 4.46 µM; TGI [7]: > 25 µM; GI50 [8]: > 22.9 µM; TGI [8]: > 25 µM; GI50 [9]: > 7.5 µM; TGI [9]: > 25 µM; GI50 [10]: > 25 µM; TGI [10]: > 25 µM

Q: With `COC(=O)/C=C/c1cc(O)c2oc(-c3ccc(O)c(O)c3)c(C(=O)OC)c2c1` as the molecule, how does the GI50 [1] read?
A: 0.802 µM

Q: And the TGI [1]?
A: 5.96 µM

Q: What about the GI50 [2] of the same molecule?
A: 0.74 µM

Q: What about the TGI [2] of the same molecule?
A: 13.2 µM

Q: And the GI50 [3]?
A: 2.83 µM

Q: What about the TGI [3] of the same molecule?
A: 16.5 µM

Q: And the GI50 [4]?
A: 0.402 µM

Q: And the TGI [4]?
A: > 21.8 µM

Q: What about the GI50 [5] of the same molecule?
A: 3.13 µM

Q: What about the TGI [5] of the same molecule?
A: 11.7 µM

Q: And the GI50 [6]?
A: 2.66 µM

Q: What about the TGI [6] of the same molecule?
A: 18.1 µM

Q: And the GI50 [7]?
A: 0.442 µM

Q: What about the TGI [7] of the same molecule?
A: 12.7 µM

Q: What about the GI50 [8] of the same molecule?
A: 0.356 µM

Q: And the TGI [8]?
A: 14.2 µM

Q: What about the GI50 [9] of the same molecule?
A: 0.543 µM

Q: And the TGI [9]?
A: 11.5 µM

Q: And the GI50 [10]?
A: 0.361 µM

Q: And the TGI [10]?
A: 10.4 µM

Q: How did the TGI [1] turn out when `COC(=O)C12C3C4C1C1C2C3C41C(=O)OC(C)(C)C` (centres undefined) was run?
A: > 100 µM

Q: And the TGI [2]?
A: > 100 µM

Q: And the TGI [3]?
A: > 100 µM

Q: And the TGI [4]?
A: > 100 µM

Q: And the TGI [5]?
A: > 100 µM

Q: And the TGI [6]?
A: > 100 µM

Q: What about the TGI [7] of the same molecule?
A: > 100 µM

Q: What about the TGI [8] of the same molecule?
A: > 100 µM

Q: What about the TGI [9] of the same molecule?
A: > 100 µM

Q: And the TGI [10]?
A: > 100 µM

Q: `Cc1nnc(S(=O)(=O)c2ccc(N=Nc3c(N)nc(N)nc3N)cc2)s1` was tested. Which TGI [1] did it give?
A: > 100 µM

Q: What about the TGI [2] of the same molecule?
A: > 100 µM

Q: And the TGI [3]?
A: > 100 µM

Q: What about the TGI [4] of the same molecule?
A: > 100 µM

Q: What about the TGI [5] of the same molecule?
A: > 100 µM

Q: What about the TGI [6] of the same molecule?
A: > 100 µM

Q: And the TGI [7]?
A: > 100 µM

Q: What about the TGI [8] of the same molecule?
A: > 100 µM

Q: What about the TGI [9] of the same molecule?
A: > 100 µM

Q: And the TGI [10]?
A: > 100 µM

Q: Which GI50 [1] does the source give for `COc1cc(C(=O)c2cc(C)c3[nH]c4ccc(Cl)cc4c3c2C)cc(OC)c1OC` here?
A: 0.0376 µM

Q: What about the TGI [1] of the same molecule?
A: 8.4 µM

Q: And the GI50 [2]?
A: 0.575 µM

Q: What about the TGI [2] of the same molecule?
A: 17.3 µM

Q: And the GI50 [3]?
A: 4.28 µM

Q: And the TGI [3]?
A: 32.3 µM

Q: What about the GI50 [4] of the same molecule?
A: 0.0399 µM

Q: And the TGI [4]?
A: > 100 µM

Q: And the GI50 [5]?
A: 0.0284 µM

Q: What about the TGI [5] of the same molecule?
A: 0.303 µM

Q: What about the GI50 [6] of the same molecule?
A: 0.035 µM

Q: What about the TGI [6] of the same molecule?
A: 3.74 µM

Q: What about the GI50 [7] of the same molecule?
A: 0.0756 µM

Q: What about the TGI [7] of the same molecule?
A: 19.5 µM

Q: What about the GI50 [8] of the same molecule?
A: 0.0418 µM

Q: What about the TGI [8] of the same molecule?
A: 19.2 µM

Q: And the GI50 [9]?
A: 0.0438 µM

Q: And the TGI [9]?
A: 12.3 µM

Q: And the GI50 [10]?
A: 0.0593 µM

Q: And the TGI [10]?
A: 12.8 µM

Q: How did the TGI [1] turn out when `O=C(O)CNc1cc(-c2ccccc2)nc(NCC(=O)O)n1` was run?
A: > 100 µM

Q: And the TGI [2]?
A: > 100 µM

Q: And the TGI [3]?
A: > 100 µM

Q: What about the TGI [4] of the same molecule?
A: > 100 µM

Q: And the TGI [5]?
A: > 100 µM

Q: And the TGI [6]?
A: > 100 µM

Q: What about the TGI [7] of the same molecule?
A: > 100 µM

Q: And the TGI [8]?
A: > 100 µM

Q: And the TGI [9]?
A: > 100 µM

Q: What about the TGI [10] of the same molecule?
A: > 100 µM

Q: Which results are given for `C/C1=C\CC[C@@]2(C)O[C@@H]2[C@H]2OC(=O)[C@@H](CN(C)C)[C@@H]2CC1`?
A: GI50 [1]: 17.7 µM; TGI [1]: 34.9 µM; GI50 [2]: 14.2 µM; TGI [2]: 34.8 µM; GI50 [3]: 12.8 µM; TGI [3]: 28.4 µM; GI50 [4]: 2.11 µM; TGI [4]: 5.61 µM; GI50 [5]: 32.8 µM; TGI [5]: > 100 µM; GI50 [6]: 32.8 µM; TGI [6]: > 100 µM; GI50 [7]: 20.9 µM; TGI [7]: 40.4 µM; GI50 [8]: 27.9 µM; TGI [8]: 63 µM; GI50 [9]: 17.9 µM; TGI [9]: 34.2 µM; GI50 [10]: 15.6 µM; TGI [10]: 31.6 µM

Q: `COc1ccc(N2C(=O)C(c3ccccc3)(c3ccccc3)C23C(=O)N(C)c2ccccc23)cc1` (centres undefined) was tested. Which GI50 [1] did it give?
A: > 100 µM

Q: And the TGI [1]?
A: > 100 µM

Q: What about the GI50 [2] of the same molecule?
A: > 100 µM

Q: And the TGI [2]?
A: > 100 µM

Q: What about the GI50 [3] of the same molecule?
A: > 100 µM

Q: What about the TGI [3] of the same molecule?
A: > 100 µM

Q: What about the GI50 [4] of the same molecule?
A: > 100 µM

Q: What about the TGI [4] of the same molecule?
A: > 100 µM

Q: What about the GI50 [5] of the same molecule?
A: > 100 µM

Q: And the TGI [5]?
A: > 100 µM

Q: And the GI50 [6]?
A: > 100 µM

Q: And the TGI [6]?
A: > 100 µM

Q: What about the GI50 [7] of the same molecule?
A: > 100 µM

Q: What about the TGI [7] of the same molecule?
A: > 100 µM

Q: And the GI50 [8]?
A: > 100 µM

Q: And the TGI [8]?
A: > 100 µM

Q: What about the GI50 [9] of the same molecule?
A: > 100 µM

Q: And the TGI [9]?
A: > 100 µM

Q: And the GI50 [10]?
A: > 100 µM

Q: What about the TGI [10] of the same molecule?
A: > 100 µM

Q: For `Cc1ccc(C(SCC(N)C(=O)O)(c2ccccc2)c2ccc(C)cc2)cc1` (centres undefined), which GI50 [1] is on record?
A: 0.119 µM

Q: And the TGI [1]?
A: 17.3 µM

Q: What about the GI50 [2] of the same molecule?
A: 0.219 µM

Q: What about the TGI [2] of the same molecule?
A: 3.88 µM

Q: And the GI50 [3]?
A: 2.13 µM

Q: And the TGI [3]?
A: > 56.8 µM

Q: And the GI50 [4]?
A: 0.341 µM

Q: And the TGI [4]?
A: > 75.7 µM

Q: What about the GI50 [5] of the same molecule?
A: 0.167 µM

Q: What about the TGI [5] of the same molecule?
A: 2.15 µM

Q: And the GI50 [6]?
A: 0.307 µM

Q: And the TGI [6]?
A: 12 µM

Q: And the GI50 [7]?
A: 2 µM

Q: What about the TGI [7] of the same molecule?
A: 18.9 µM

Q: What about the GI50 [8] of the same molecule?
A: 0.476 µM

Q: And the TGI [8]?
A: 39.3 µM

Q: And the GI50 [9]?
A: 0.526 µM

Q: What about the TGI [9] of the same molecule?
A: 26.1 µM

Q: What about the GI50 [10] of the same molecule?
A: 1.78 µM

Q: What about the TGI [10] of the same molecule?
A: 36.3 µM

Q: With `CS(=O)(=O)N/N=C/CN1C(=O)c2ccccc2C1=O` as the molecule, how does the TGI [1] read?
A: > 100 µM

Q: What about the TGI [2] of the same molecule?
A: > 100 µM

Q: What about the TGI [3] of the same molecule?
A: > 100 µM

Q: What about the TGI [4] of the same molecule?
A: > 100 µM

Q: And the TGI [5]?
A: > 100 µM

Q: And the TGI [6]?
A: > 100 µM

Q: And the TGI [7]?
A: > 100 µM

Q: What about the TGI [8] of the same molecule?
A: > 100 µM

Q: And the TGI [9]?
A: > 100 µM

Q: What about the TGI [10] of the same molecule?
A: > 100 µM
